From paper PMC12683216, “Using High‐Throughput Screening to Identify Crosslinking Peptides That Control Cell‐Mediated Matrix Degradation” (Advanced Healthcare Materials, 2025) come the findings set out here.

Molecules are shown by their SMILES. Where two headings read alike, the source gives them in different places. Where a SMILES comes first, the peptide text is derived from it. [ ]: non-standard residue; d: D form. βAla = NCCC(=O)O

Series [1] has as its system hMSCs. The experiment in a line: Soluble peptide degradation, Cells condition (LC-MS). In kind it is in vitro ADME, human. The conditions noted are these: LC-MS. In outline: (§1)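 Pooled synthetic TAILS-derived peptides added to hUVEC or hMSC cultures (Cells) or cell-free conditioned media (Media); MMP-14 inhibitor NSC 405 020 at 10 µM final. Samples taken at 0 and 24 h, acidified, analysed by LC-MS; peak areas normalised to 50 µM βFβA6 internal standard, 24 h/0 h gives fraction remaining.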

Assay in series [2]: as above
The conditions noted are these: human; for remaining at 24 h, 50 µM: Figure 3C, individually synthesized soluble peptide, N = 6. The series is classed as in vitro ADME, human. In outline: as §1

Series [3] relates to MMP-14. The description is as above. The series is classed as in vitro ADME, human. Conditions: human. A digest of the protocol: as §1
Series [4] in a line: Soluble peptide degradation, Media condition (cell-conditioned media, LC-MS). Conditions: for remaining at 24 h / remaining at 24 h, 50 µM: human. In kind it is in vitro ADME, human. A digest of the protocol: (§2)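 Pooled peptide library added to medium conditioned by hUVECs or hMSCs with cells removed. Fraction remaining after 24 h measured by LC-MS (positive-ion ESI). Value is peptide peak area relative to 50 µM non-degradable βFβA6 internal standard.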

Assay in series [5]: as above
In kind it is in vitro ADME, human. A digest of the protocol:
as §2

Series [6] concerns hUVECs. Description: Soluble peptide degradation, Cells condition (LC-MS). In kind it is in vitro ADME, human. Conditions: Figure 3B heatmap; split-and-pool libraries KLVADX1X2ASAE in media on hUVECs; 24 h; LC-MS, ratio to βFβA6; N = 2. In outline:
as §1

Series [7] has as its system T1, MMP-14.
T1 construct: purchased antibodies.com
Description: Peptide degradation with added exogenous recombinant MMP-14 (LC-MS). In kind it is in vitro ADME. Conditions: human, cells or culture medium. Here is the method:
To verify that MMP‐14 can degrade the KLVAD‐LM and PanMMP peptides, recombinant MMP‐14 was added to the different peptides, both in PBS and in the Cell and Media culture conditions (Figure 7 ). Peptides were incubated under three conditions: in fresh cell culture media (“Blank”), in media with cells present (“Cells”), and in cell‐conditioned media (“Media”). This was done for both hMSCs and hUVECs, and was also done with and without the addition of exogenous MMP.
The extent of peptide degradation was quantified for samples both with and without the addition of exogenous MMP‐14. […] Error bars indicate ± standard deviation, N = 3 with technical triplicates.
hUVECs (75000 per well) or hMSCs (36000 per well) were seeded into a 48 well plate, and 500 µL media was added to the wells. […] The peptide libraries were dissolved at a stock solution of 10 mM total peptide content. For libraries containing 38 peptides, 95 µL of the stock solution was added to each well; for libraries with 19 peptides, 47.5 µL was added to each well, and media was taken at 0 and 24 h. Add 4 µL of acetic acid to all collected media in the LC‐MS plates and store them in a −80 °C freezer to prevent further proteolytic degradation. From each sample, 10 µL of crude solution was introduced by the LC‐MS through a Thermo Scientific Vanquish LC System (Thermo Fisher Scientific), which outputted to a Thermo Scientific LTQ XL Linear Ion Trap Mass Spectrometer (Thermo Fisher Scientific). The sampled mixture was trapped on a column (ProntoSIL C18 AQ, 120 Å, 3 µm, 2.0 x 50 mm HPLC Column, PN 0502F184PS030, MAC‐MOD Analytical Inc.). The samples were loaded onto the column with a solvent containing acetonitrile/water, 5:95 (v/v) containing 1% acetic acid at a flow rate of 300 µL min^−1 and held for 1 min. The sample was then eluted from the column with a linear gradient of 5–40% Solvent B (1% acetic acid in acetonitrile) at the same flow rate for 5 min. This was followed by a 1 min ramp up to 100% Solvent B, where it was re‐equilibrated with Solvent A (1% acetic acid) to 5% solvent B over the course of 1 min and held there for 2 min. The column temperature was kept at a constant 29 °C, and the mass spectrometer was operated in positive ion mode. Using a Heated ESI, the Source Voltage was set to 4.1 kV, and the capillary temperature was 350 °C. For non‐library degradation studies, 2.5 µL of 10 mM peptide stock solution for each peptide was added.
To assess the activity of the conditioned media, the media were divided into two equal portions. One portion was used for a standard degradation study, while the other was cultured for an additional 24 h before the PanMMP and KLVADLMASAE were added. After 24 h of incubation, the media were collected for further analysis. To assess the impact of recombinant MMP‐14 on PanMMP and KLVADLMASAE, recombinant MMP‐14 (antibodies.com) was dissolved in the media at a concentration of 0.5 nM. The remaining steps followed the standard degradation study protocol.
For all degradation studies using soluble peptides, a non‐proteolytically degradable NH2‐βFβAβAβAβAβAβA‐amide (βFβA6) peptide, where βF is β‐phenylalanine and βA is β‐alanine, was added at a 50 µM concentration and used as an internal standard. Peptide degradation ratios were measured by LC‐MS and analyzed by Xcalibur. The relative concentrations of the peptide were calculated by the ratio of the peak area of the peptide and the peak area of βFβA6.

The mark [8] stands for this setting: hUVECs in culture with fresh media (Cells condition), media on hUVECs, 24 h, LC-MS, ratio to βFβA6, read-out: Fraction of peptide remaining after 24 hours: hUVEC Cells.
[9] abbreviates: with NSC 405 020 (MMP-14 inhibitor), Figure 3C, 50 µM peptide, media on hMSCs with MMP-14 inhibitor NSC 405 020 10 µM, 24 h, LC-MS, N = 6, read-out: Fraction of peptide remaining after 24 hours: hMSC +Inhibitor.
Setting [10] is: with NSC 405 020 (MMP-14 inhibitor), Figure 3C, 50 µM peptide, media on hUVECs with MMP-14 inhibitor NSC 405 020 10 µM, 24 h, LC-MS, N = 6, read-out: Fraction of peptide remaining after 24 hours: hUVEC +Inhibitor.
The mark [11] stands for this setting: human, hMSC-conditioned media without cells (Media condition), Figure 3B heatmap, split-and-pool libraries KLVADX1X2ASAE in hMSC-conditioned media without cells, 24 h, LC-MS, ratio to βFβA6, N = 2, read-out: Fraction of peptide remaining after 24 hours: hMSC Media.

Regarding `CC(=O)NCCC(=O)N[C@@H](CCCCN)C(=O)N[C@@H](CC(C)C)C(=O)N[C@H](C(=O)N[C@@H](C)C(=O)N[C@@H](CC(=O)O)C(=O)N1CCC[C@H]1C(=O)N[C@@H](Cc1ccc(O)cc1)C(=O)N[C@@H](C)C(=O)N[C@@H](CO)C(=O)N[C@@H](C)C(=O)N[C@@H](CCC(=O)O)C(=O)NCCC(N)=O)C(C)C` [KLVAD-PY] (Ac-[βAla]KLVADPYASAE[βAla]-NH2), the “Fraction of peptide remaining after 24 hours: hMSC Cells” value in series [1] (Figure 3C, individually synthesized soluble peptide, 50 µM, media on hMSCs, 24 h, ratio to βFβA6, N = 6) stood at 0.52. Besides, the share remaining at 24 h in series [2] (hMSCs in culture with fresh media (Cells condition), Figure 3B heatmap, split-and-pool libraries KLVADX1X2ASAE (19 or 38 peptides per library) in media on hMSCs, 24 h, LC-MS, ratio to βFβA6, N = 2, read-out: Fraction of peptide remaining after 24 hours: hMSC Cells) was 56%; in series [2] (hUVECs in culture with fresh media (Cells condition), Figure 3B heatmap, split-and-pool libraries KLVADX1X2ASAE in media on hUVECs, 24 h, LC-MS, ratio to βFβA6, N = 2, read-out: Fraction of peptide remaining after 24 hours: hUVEC Cells), 94%; in series [4] (hUVEC-conditioned media without cells (Media condition), Figure 3B heatmap, split-and-pool libraries KLVADX1X2ASAE in hUVEC-conditioned media without cells, 24 h, LC-MS, ratio to βFβA6, N = 2, read-out: Fraction of peptide remaining after 24 hours: hUVEC Media), 118%; in series [5] (setting [11]) it was 81%. In addition, the amount remaining at 24 h, 50 µM is 88% in series [2] (setting [8]); 89% in series [3] (setting [9]); 100% in series [3] (setting [10]); 96% in series [5] (human, hMSC-conditioned media without cells (Media condition), Figure 3C, individually synthesized soluble peptide, 50 µM, hMSC-conditioned media without cells, 24 h, LC-MS, ratio to βFβA6, N = 6, read-out: Fraction of peptide remaining after 24 hours: hMSC Media). In addition, the “Fraction of peptide remaining after 24 hours: hUVEC Media” value in series [4] (Figure 3C, individually synthesized soluble peptide, 50 µM, hUVEC-conditioned media without cells, 24 h, LC-MS, ratio to βFβA6, N = 6) was found to be 1.11.

Take `CC(=O)NCCC(=O)N[C@@H](CCCCN)C(=O)N[C@@H](CC(C)C)C(=O)N[C@H](C(=O)N[C@@H](C)C(=O)N[C@@H](CC(=O)O)C(=O)N[C@@H](CC(N)=O)C(=O)N[C@@H](Cc1ccc(O)cc1)C(=O)N[C@@H](C)C(=O)N[C@@H](CO)C(=O)N[C@@H](C)C(=O)N[C@@H](CCC(=O)O)C(=O)NCCC(N)=O)C(C)C` [KLVAD-NY] (Ac-[βAla]KLVADNYASAE[βAla]-NH2): in series [6], the “Fraction of peptide remaining after 24 hours: hUVEC Cells” value worked out at 0.91. In addition, in series [1] (Figure 2B screen, 24 h), the “remaining after 24 h in the Cells condition for hMSCs” value came out at 70%. The “peptide remaining after 24 h, Cells condition, hMSCs” value in series [1] (Figure 3C, 50 µM soluble peptide, N = 6) is 78%. Besides, the fraction remaining at 24 h worked out at 70% in series [2] (hMSCs in culture with fresh media (Cells condition), Figure 2B heatmap, pooled TAILS-derived soluble peptides (Ac-βAla N-terminus, βAla-amide C-terminus) in media on hMSCs (36000 per well, 48 well plate, 500 µL), 24 h, LC-MS, ratio to βFβA6 internal standard, 24 h / 0 h, N = 5, read-out: Fraction of peptide remaining at 24 hours: hMSC Cells); 92% in series [2] (hUVECs in culture with fresh media (Cells condition), Figure 2B heatmap, pooled TAILS-derived soluble peptides in media on hUVECs (75000 per well, 48 well plate, 500 µL), 24 h, LC-MS, ratio to βFβA6 internal standard, 24 h / 0 h, N = 5, read-out: Fraction of peptide remaining at 24 hours: hUVEC Cells); 100% in series [4] (Figure 2B heatmap, pooled TAILS-derived soluble peptides in 24 h hUVEC-conditioned media without cells, 24 h, LC-MS, ratio to βFβA6 internal standard, 24 h / 0 h, N = 5, read-out: Fraction of peptide remaining at 24 hours: hUVEC Media); 84% in series [5] (setting [11]); 97% in series [5] (human, Figure 2B heatmap, pooled TAILS-derived soluble peptides in 24 h hMSC-conditioned media without cells, 24 h, LC-MS, ratio to βFβA6 internal standard, 24 h / 0 h, N = 5, read-out: Fraction of peptide remaining at 24 hours: hMSC Media). Besides, the fraction remaining at 24 h, 50 µM in series [2] (hMSCs in culture with fresh media (Cells condition), media on hMSCs, 24 h, LC-MS, ratio to βFβA6, read-out: Fraction of peptide remaining after 24 hours: hMSC Cells) is 78%; in series [2] (setting [8]) it was 96%; in series [3] (setting [9]) it was 87%; in series [3] (setting [10]), 98%; in series [4] (hUVEC-conditioned media without cells (Media condition), Figure 3C, individually synthesized soluble peptide, 50 µM, hUVEC-conditioned media without cells, 24 h, LC-MS, ratio to βFβA6, N = 6, read-out: Fraction of peptide remaining after 24 hours: hUVEC Media), 102%. In addition, the “degradation in Media condition” value in series [4] (Figure 2B screen, hUVEC-conditioned media, 24 h, LC-MS) is “less than 3%”. For the same molecule, the “Fraction of peptide remaining after 24 hours: hUVEC Media” value in series [4] (Figure 3B heatmap, split-and-pool libraries KLVADX1X2ASAE in hUVEC-conditioned media without cells, 24 h, LC-MS, ratio to βFβA6, N = 2) came to 0.98. The “Fraction of peptide remaining after 24 hours: hMSC Media” value in series [5] (Figure 3C, individually synthesized soluble peptide, 50 µM, hMSC-conditioned media without cells, 24 h, LC-MS, ratio to βFβA6, N = 6) is given as 0.92. For the same molecule, the metabolised at 24 h in series [5] (human, Figure 2B screen, hMSC-conditioned media, 24 h, LC-MS) is under 3%.

On to `CSCC[C@H](NC(=O)[C@H](CC(C)C)NC(=O)[C@H](CC(=O)O)NC(=O)[C@H](C)NC(=O)[C@@H](NC(=O)[C@H](CC(C)C)NC(=O)[C@H](CCCCN)NC(=O)CCNC(C)=O)C(C)C)C(=O)N[C@@H](C)C(=O)N[C@@H](CO)C(=O)N[C@@H](C)C(=O)N[C@@H](CCC(=O)O)C(=O)NCCC(N)=O` [KLVAD-LM] (Ac-[βAla]KLVADLMASAE[βAla]-NH2), for which the amount remaining at 24 h in series [2] (cells or culture medium) turned out to be 87%; in series [2] (cells or culture medium, Fraction of peptide remaining after 24 hours: hMSC Cells), 39%. For the same molecule, the fraction remaining at 24 h, 50 µM was determined as 100% in series [3] (cells or culture medium); 82% in series [3] (cells or culture medium, Fraction of peptide remaining after 24 hours: hMSC +Inhibitor); 76% in series [7] (peptide remaining in hMSC conditioned media with added MMP‐14); 69% in series [7] (peptide remaining in hUVEC conditioned media with added MMP‐14); 93% in series [4] (cells or culture medium); 97% in series [5] (human, cells or culture medium). For the same molecule, the “degraded across all Media conditions” value in series [4] and in series [5] was “less than 10%” each time.
